The test system of experiment [1] is bacteria taken from the feline oral cavity. The experiment can be described thus: in vitro antibacterial activity. It counts as cell-based. The protocol: Periodontopathic conditions are the most common disease in dogs and cats. Especially in cats, prophylaxis is usually limited to professional dental cleaning under anaesthesia. Special diets which reduce plaque and calculus accumulation have been formulated to extend the period of time between professional dental cleanings. The study was conducted to determine the effect of EGCG in a regular dry diet on the oral health of cats. In addition, the in vitro antibacterial activity of the substance and its effect on the antioxidant status of cats were evaluated. […] With a view to achieving better in vivo results, a change in the dosage, and possibly also a change in the mode of administration, can be considered. Further, the active ingredient can be administered in higher concentration, or in such a way as to prolong the time of its contact with the oral cavity. […] This was investigated as a secondary target variable.

A short description of experiment [2]: 28-day feeding study in cats, antioxidant status. It is filed as in vivo. Particulars: dry cat food with 227 mg/kg of EGCG, 28 days, compared with control group. The protocol:
Periodontopathic conditions are the most common disease in dogs and cats. Especially in cats, prophylaxis is usually limited to professional dental cleaning under anaesthesia. Special diets which reduce plaque and calculus accumulation have been formulated to extend the period of time between professional dental cleanings. The study was conducted to determine the effect of EGCG in a regular dry diet on the oral health of cats. In addition, the in vitro antibacterial activity of the substance and its effect on the antioxidant status of cats were evaluated. The substance under investigation was sprayed on a standard dry cat food. The supplemented diet contained 227 mg/kg of EGCG. 18 cats were made available for the feeding study, being assigned either to a control group or a study group, each group containing 9 cats. At the beginning of the trial, which was conducted over a period of 28 days, the oral health status of the cats was examined using various indices and tests, and samples from the oral cavity were obtained for bacteriological analysis. In addition, blood samples were taken to determine the antioxidant status of the animal. The examinations were followed by a coronal cleaning (scaling and polishing) to ensure that the study period began with no plaque or calculus present on tooth surfaces (“clean tooth” model). […]

As for `O=C(O[C@@H]1Cc2c(O)cc(O)cc2O[C@@H]1c1cc(O)c(O)c(O)c1)c1cc(O)c(O)c(O)c1` [Epigallocatechingallate], in experiment [1], the “inhibition of growth of bacteria taken from the feline oral cavity” value is reported as “able to inhibit the growth bacteria taken from the feline oral cavity in vitro”. Besides, the “effect on the antioxidant status of the cats” value in experiment [2] is on record as “positive effect on the antioxidant status of the cat”.

The values above are taken from patent publication US20080085338A1, “Pet Food” (priority 2005, published 2008).
